{"source": "patent US7229621B2", "about": "“Method to enhance the immunogenicity of an antigen” (Torrey Pines Institute for Molecular Studies, priority 1998, dated 2007)", "key": {"E.G7-OVA cells": {"tested_on": "E.G7-OVA cells", "assay": "K^b:[…] complexes on E.G7-OVA cells (mAb 25-D1.16 fluorescence standard)", "type": "cell-based, C57BL/6", "details": "endogenous SIINFEKL", "text": "(§1) As stated previously, whether mature antigen-bearing dendritic cells will be encountered by and activate naive T cells in the lymph node is likely to depend not only on the number of antigen-bearing dendritic cells that enter the node, but also on the density of MHC:peptide complexes expressed on their membranes. To estimate the density of peptide:MHC complexes on the immigrant dendritic cells generated by this procedure, we compared the fluorescence intensity of various cell populations detected by the peptide:MHC-specific mAb, 25-D1.16, using identical staining conditions and flow cytometer settings. The results are shown in Table IV, providing the number of specific peptide:MHC complexes expressed on the plasma membrane of dendritic cells after various treatments in vitro or in vivo.\nThe tumor cell, E.G7-OVA, is the C57BL/6 EL4 thymoma transfected with the complete gene for chicken ovalbumin (OVA). […] The number of those complexes expressed per cell has been measured independently by two different laboratories and reported to be 88 (Rotzschke et al. 1991 Eur. J. Immunol. 21:2891–2894) and 90 (Malarkannan et al. 1995 J. Exp. Med. 182:1739–1750). Therefore, the fluorescence intensity of E.G7-OVA could be used as a standard by which to estimate the number of K^b:[…] complexes expressed on the dendritic cell populations identified in the present study. […]"}, "E.G7-OVA tumor cells": {"tested_on": "E.G7-OVA tumor cells", "assay": "E.G7-OVA tumor growth after immunization with tumor antigen and migration inducer", "type": "in vivo, C57BL/6 mice", "text": "The tumor cell, E.G7-OVA, is the C57BL/6 EL4 thymoma transfected with the complete gene for chicken ovalbumin (OVA). The transfected cell line expresses OVA protein, which is also processed naturally by E.G7-OVA cells into an eight amino acid peptide, OVA257-264, with the sequence […]. […] Based on the positive results using FITC, the inventors followed a similar protocol in an attempt to induce immunity to the E.G7-OVA tumor by topical administration of the well-characterized, synthetic […] tumor-associated peptide.\nC57BL/6 mice were treated as follows: 1) shaving alone; 2) topical administration of acetone and dibutyl phthalate; 3) topical administration of […] (240 μg/ml) in DMSO diluted in PBS, followed in 5 hours by acetone and dibutyl phthalate; and 4) topical administration of […] (240 μg/ml) in acetone and dibutyl phthalate. All mice were subsequently injected subcutaneously with 5×10^5 E.G7-OVA cells (5-times the minimal tumorogenic dose). Tumor-specific immunity was monitored by measuring the size of the developing tumor.\nThe mucous membranes lack the tough barrier posed by the stratum corneum of the skin. […] The EL4 parent tumor cell line, lacking chicken ovalbumin, was used as a negative control; no immunity against the EL4 tumor cells was seen. Thus, the inventors' hypothesis regarding penetration of the stratum corneum was confirmed; the […] peptide was not effectively reaching the immature dendritic cells, known as Langerhans cells, underlying the stratum corneum.\nTo enhance the effectiveness of cutaneous topical administration of peptide, […] was dissolved in DMSO and applied to the skin without further dilution. Dibutyl phthalate in a 50:50 mixture with acetone was applied to the same site 5 hr later. All mice were subsequently injected subcutaneously with 5×10^5 E.G7-OVA cells. The results shown in FIG. 6 indicate that the peptide in concentrated DMSO was apparently able to traverse the stratum corneum, effectively gaining access to the epidermal Langerhans cells. […] Thus, the tumor-specific peptide, […], in concentrated DMSO, penetrated the stratum corneum in sufficient concentration to be incorporated into the MHC class I molecule K^b on epidermal Langerhans cells, and in the presence of the migration inducer, dibutyl phthalate, was effectively presented to CD8+ CTLs in the draining lymph nodes.\nTo confirm the immunogenicity of the disclosed treatment, groups of 10 C57BL/6 mice were injected with 50 μl of 1.25 mM OVA protein in HBSS, with HBSS alone, or with nothing. This was followed an hour later by topical application of DBP in acetone or with nothing. One month later, the mice were inoculated subcutaneously with 5×10^5 EL4 tumor cells or with 5×10^5 E.G7-OVA tumor cells and subsequent tumor growth was measured."}, "[1]": {"tested_on": "dendritic cells in draining inguinal lymph nodes", "assay": "Antigen-bearing dendritic cells in lymph nodes after ultrasound application of soluble peptide followed by migration inducer", "type": "in vivo, C57BL/6 mice", "protocol": "FIG. 9 illustrates the effect of delivering a peptide antigen ([…]) into the skin via ultrasound, followed by topical application of dibutyl phthalate and acetone to maximize the induction of dendritic cell migration and maturation. […] (240 μg) in DMSO, or DMSO alone, was applied to the shaved abdominal skin of C57BL/6 mice and covered with a hydrogel, into which was inserted a 13 mm diameter ultrasound transducer. Ultrasound was applied at 20 kHz and 1.6 W/cm^2, in 1 second pulses every 2 seconds for 6 minutes, for a total ultrasound dose of 288 J/cm^2. Two hours later, a 50:50 v/v solution of acetone and dibutyl phthalate was applied topically to the same area. Two days later, the skin draining inguinal lymph nodes were removed and the cells analyzed by immunofluorescent flow cytometry.\nThe antigen-bearing dendritic cells that had migrated to the draining lymph node are shown in the upper right quadrant of each dot plot. The dendritic cells in the lymph node were identified by their characteristic light scatter properties and exceptionally high surface expression of MHC class II (FL1), while the antigenic epitope was detected using the K^b:[…]-specific mAb 25-D1.16 (FL2), as described above.\nas §1"}, "[2]": {"details": "240 μg in DMSO, ultrasound 20 kHz, acetone/dibutyl phthalate 2 hours later, nodes two days later"}, "[3]": {"details": "immigrant Langerhans cells from inguinal lymph nodes 48 hrs after 240 μg SIINFEKL by ultrasound"}}, "data": [{"sequence": "SIINFEKL [eight amino acid peptide OVA257-264 of chicken ovalbumin, tumor-associated peptide antigen presented by K^b]", "values": [{"measurement": "Median Specific Fl. Intensity", "setting": "E.G7-OVA cells", "value": 4.5}, {"measurement": "protection against E.G7-OVA tumor", "setting": "E.G7-OVA tumor cells; SIINFEKL in acetone and dibutyl phthalate applied to the vaginal epithelium (FIG. 5)", "value": "protection against the tumor was induced"}, {"measurement": "established E.G7-OVA tumors", "setting": "E.G7-OVA tumor cells; SIINFEKL in undiluted DMSO on skin, dibutyl phthalate 50:50 acetone 5 hr later (FIG. 6)", "value": "diminished by 16 days post-inoculation"}, {"measurement": "E.G7-OVA tumor growth", "setting": "E.G7-OVA tumor cells; SIINFEKL in undiluted DMSO on skin, dibutyl phthalate 50:50 acetone 5 hr later, 5×10^5 cells s.c. (FIG. 6)", "value": "suppressed after 6 to 9 days"}, {"measurement": "inhibition of E.G7-OVA tumor cell growth", "setting": "E.G7-OVA tumor cells; cutaneous topical SIINFEKL 240 μg/ml in DMSO diluted in PBS then acetone and dibutyl phthalate, or in acetone and dibutyl phthalate, 5×10^5 cells s.c. (FIG. 4)", "value": "none of the treatment protocols were effective"}, {"measurement": "Dendritic Cells per Lymph Node", "setting": "[1]; [2]", "value": "51,968"}, {"measurement": "K^b:SIINFEKL^+ DC per LymphNode", "setting": "[1]; [2]", "value": "13,216"}, {"measurement": "Total Cells per Lymph Node", "setting": "[1]; [2]", "value": "5.6 × 10^6"}, {"measurement": "Enhancement", "setting": "[1]; K^b:SIINFEKL+ DC versus DMSO alone", "value": 5, "unit": "×"}, {"measurement": "Median No. of Complexes/Cell", "setting": "[1]; [3]", "value": 633, "unit": "complexes/cell"}, {"measurement": "Median Specific Fl. Intensity", "setting": "[1]; [3]", "value": 32}, {"measurement": "cells reactive with mAb 25-D1.16 relative to absence of SIINFEKL", "setting": "[1]; ultrasound-mediated topical exposure to SIINFEKL", "value": "five times"}]}]}
